Assay results as given in ChEMBL document CHEMBL5532664, “Discovery, Optimization, and Evaluation of Potent and Selective DNA-PK Inhibitors in Combination with Chemotherapy or Radiotherapy for the Treatment of Malignancies” (J Med Chem, 2024).
Calls of active or inactive are those of the source. The calls are words filed in the database; no cut-off is given here.

Columns and labels:
HCT-116 [1] = experiment: Inhibition of colony formation in human HCT-116 cells at […] preincubated with compound for 1 hr followed by exposure to 2 Gy gamma irradiation and measured after 7 days by crystal violet staining based chemiluminescence assay relative to control; format: functional; settings: HCT-116, light or radiation study, dose 0.25 µM, time 169 hrs
in vitro = settings: human, liver microsomes
[2] = target: DNA-dependent protein kinase catalytic subunit (Homo sapiens, UniProt P78527)
Description: Inhibition of human DNA-PK incubated for 30 mins in presence of Mg/ATP by HTRF method

HCT-116 [3] = experiment: Inhibition of colony formation in human HCT-116 cells preincubated with compound for 1 hr followed by exposure to 2 Gy gamma irradiation and measured after 7 days by crystal violet staining based chemiluminescence assay; format: functional, cell-based; settings: HCT-116, light or radiation study
NCI-H460 = experiment: Antitumor activity against human NCI-H460 cells xenografted in BALB/ c nude mouse assessed as inhibition of tumor growth at 100 mg/kg, po administered once daily with 2 Gy irradiation and measured upto 7 days by vernier caliper analysis; format: functional, organism-based; settings: time <= 7.0 day

Chain of DNA-dependent protein kinase catalytic subunit (P78527 whole entry): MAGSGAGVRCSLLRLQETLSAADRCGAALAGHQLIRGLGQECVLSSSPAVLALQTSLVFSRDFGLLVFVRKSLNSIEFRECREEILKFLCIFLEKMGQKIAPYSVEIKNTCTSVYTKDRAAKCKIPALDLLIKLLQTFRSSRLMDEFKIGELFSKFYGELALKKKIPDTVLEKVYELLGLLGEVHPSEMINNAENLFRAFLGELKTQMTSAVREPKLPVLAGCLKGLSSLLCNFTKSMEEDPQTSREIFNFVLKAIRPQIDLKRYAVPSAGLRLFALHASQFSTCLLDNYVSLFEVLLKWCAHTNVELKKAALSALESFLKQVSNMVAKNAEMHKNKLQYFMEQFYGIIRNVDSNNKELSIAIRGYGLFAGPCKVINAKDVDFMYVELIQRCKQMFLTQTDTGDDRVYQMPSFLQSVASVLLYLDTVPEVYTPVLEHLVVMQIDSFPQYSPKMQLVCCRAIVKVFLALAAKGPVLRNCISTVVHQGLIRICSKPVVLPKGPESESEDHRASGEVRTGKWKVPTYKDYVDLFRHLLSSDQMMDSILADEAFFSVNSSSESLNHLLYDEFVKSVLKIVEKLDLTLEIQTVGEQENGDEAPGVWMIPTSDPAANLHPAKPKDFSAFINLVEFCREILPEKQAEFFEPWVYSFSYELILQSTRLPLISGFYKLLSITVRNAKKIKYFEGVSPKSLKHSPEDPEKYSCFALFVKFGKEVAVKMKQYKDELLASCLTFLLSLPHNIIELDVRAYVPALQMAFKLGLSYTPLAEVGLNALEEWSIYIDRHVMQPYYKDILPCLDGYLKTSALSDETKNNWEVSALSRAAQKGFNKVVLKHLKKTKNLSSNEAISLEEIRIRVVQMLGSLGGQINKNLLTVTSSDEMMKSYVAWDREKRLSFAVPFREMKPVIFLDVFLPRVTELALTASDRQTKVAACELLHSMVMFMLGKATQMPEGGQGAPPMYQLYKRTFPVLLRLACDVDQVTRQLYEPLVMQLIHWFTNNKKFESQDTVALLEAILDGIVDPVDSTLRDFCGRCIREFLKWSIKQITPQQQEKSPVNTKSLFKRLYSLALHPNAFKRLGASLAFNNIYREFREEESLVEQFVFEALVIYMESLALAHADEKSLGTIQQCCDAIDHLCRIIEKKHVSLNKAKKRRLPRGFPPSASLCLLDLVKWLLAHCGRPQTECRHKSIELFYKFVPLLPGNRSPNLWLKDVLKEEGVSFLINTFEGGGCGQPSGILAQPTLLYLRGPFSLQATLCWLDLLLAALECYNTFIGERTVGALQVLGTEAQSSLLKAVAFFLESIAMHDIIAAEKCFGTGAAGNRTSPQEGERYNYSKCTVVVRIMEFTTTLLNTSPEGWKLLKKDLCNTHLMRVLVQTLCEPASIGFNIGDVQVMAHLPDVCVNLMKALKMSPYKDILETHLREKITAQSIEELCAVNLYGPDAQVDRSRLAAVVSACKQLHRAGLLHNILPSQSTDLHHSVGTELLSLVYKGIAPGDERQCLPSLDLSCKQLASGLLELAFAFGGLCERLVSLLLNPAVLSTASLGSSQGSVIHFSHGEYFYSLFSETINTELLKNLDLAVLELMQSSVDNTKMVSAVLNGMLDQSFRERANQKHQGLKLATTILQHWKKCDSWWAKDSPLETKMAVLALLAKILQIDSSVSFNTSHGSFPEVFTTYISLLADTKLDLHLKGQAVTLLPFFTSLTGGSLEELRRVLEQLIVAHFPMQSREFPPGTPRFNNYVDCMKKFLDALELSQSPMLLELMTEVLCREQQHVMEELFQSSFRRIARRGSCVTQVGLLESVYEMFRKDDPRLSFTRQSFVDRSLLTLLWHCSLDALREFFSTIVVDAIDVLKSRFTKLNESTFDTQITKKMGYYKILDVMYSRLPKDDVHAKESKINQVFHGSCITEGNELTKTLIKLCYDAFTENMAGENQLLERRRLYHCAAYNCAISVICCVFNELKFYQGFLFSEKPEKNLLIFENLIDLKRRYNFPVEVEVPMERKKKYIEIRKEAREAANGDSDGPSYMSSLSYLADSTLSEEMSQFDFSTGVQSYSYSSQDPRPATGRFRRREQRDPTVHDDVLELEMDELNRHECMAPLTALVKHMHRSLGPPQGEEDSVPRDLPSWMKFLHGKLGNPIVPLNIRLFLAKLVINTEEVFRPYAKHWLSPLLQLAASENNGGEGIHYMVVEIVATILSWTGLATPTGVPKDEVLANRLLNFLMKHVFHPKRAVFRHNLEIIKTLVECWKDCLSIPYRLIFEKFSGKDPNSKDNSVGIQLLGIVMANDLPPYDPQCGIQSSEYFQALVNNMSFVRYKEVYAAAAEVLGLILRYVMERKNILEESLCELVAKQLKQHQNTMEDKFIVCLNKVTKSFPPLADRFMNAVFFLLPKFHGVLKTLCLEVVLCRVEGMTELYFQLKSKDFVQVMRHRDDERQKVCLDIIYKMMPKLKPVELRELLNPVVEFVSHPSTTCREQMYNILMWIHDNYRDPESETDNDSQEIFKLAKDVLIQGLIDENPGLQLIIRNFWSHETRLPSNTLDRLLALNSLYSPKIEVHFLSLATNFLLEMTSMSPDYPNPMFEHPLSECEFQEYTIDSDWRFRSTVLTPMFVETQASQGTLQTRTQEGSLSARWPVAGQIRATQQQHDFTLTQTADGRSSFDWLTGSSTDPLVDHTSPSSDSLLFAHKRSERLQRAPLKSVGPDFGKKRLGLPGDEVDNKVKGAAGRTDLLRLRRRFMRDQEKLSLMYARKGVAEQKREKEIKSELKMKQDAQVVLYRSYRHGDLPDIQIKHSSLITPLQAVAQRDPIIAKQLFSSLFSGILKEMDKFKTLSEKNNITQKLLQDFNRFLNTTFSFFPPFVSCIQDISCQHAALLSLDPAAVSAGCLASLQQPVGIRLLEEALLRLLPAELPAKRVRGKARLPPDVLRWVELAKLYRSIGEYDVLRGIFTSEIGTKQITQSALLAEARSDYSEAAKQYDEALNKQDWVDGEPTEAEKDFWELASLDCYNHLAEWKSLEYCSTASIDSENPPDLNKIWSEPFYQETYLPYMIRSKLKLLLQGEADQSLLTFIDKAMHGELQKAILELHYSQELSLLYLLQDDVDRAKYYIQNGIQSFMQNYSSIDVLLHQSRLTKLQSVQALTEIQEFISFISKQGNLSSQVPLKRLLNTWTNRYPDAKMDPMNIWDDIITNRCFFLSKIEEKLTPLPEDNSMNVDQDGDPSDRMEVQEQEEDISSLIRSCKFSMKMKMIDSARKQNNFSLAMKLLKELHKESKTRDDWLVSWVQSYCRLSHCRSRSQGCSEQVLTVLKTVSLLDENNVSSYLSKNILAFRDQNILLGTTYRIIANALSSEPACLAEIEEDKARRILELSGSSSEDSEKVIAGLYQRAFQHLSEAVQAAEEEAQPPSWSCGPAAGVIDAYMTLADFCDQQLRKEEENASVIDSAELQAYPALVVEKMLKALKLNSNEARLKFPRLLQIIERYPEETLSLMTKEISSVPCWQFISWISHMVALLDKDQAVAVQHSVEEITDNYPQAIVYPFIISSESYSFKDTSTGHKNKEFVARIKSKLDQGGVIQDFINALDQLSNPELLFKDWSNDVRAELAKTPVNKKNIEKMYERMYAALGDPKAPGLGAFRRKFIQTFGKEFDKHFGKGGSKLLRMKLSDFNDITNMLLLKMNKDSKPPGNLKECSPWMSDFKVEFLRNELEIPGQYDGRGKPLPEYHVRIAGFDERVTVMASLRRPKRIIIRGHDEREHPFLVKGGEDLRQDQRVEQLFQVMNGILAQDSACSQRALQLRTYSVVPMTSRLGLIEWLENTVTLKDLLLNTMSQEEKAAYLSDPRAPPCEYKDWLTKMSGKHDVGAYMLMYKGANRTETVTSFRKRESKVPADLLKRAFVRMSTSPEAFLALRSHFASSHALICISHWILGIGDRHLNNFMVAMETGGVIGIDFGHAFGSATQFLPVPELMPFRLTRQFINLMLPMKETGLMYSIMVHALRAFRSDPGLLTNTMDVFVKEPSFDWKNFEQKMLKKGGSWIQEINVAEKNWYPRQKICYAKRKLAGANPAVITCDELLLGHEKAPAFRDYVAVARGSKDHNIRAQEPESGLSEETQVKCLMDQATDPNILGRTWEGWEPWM

Row | Structure (SMILES) | inhibition at […] (HCT-116 [1]) [%] | IC50 [2] [nM] | also measured
1 | Cc1cc(-c2cccc(S(C)(=O)=O)c2)ncc1Nc1ncc2c(n1)n(C1CCOCC1)c(=O)n2C | 19.3 |  | 
2 | Cn1cc(-c2ccc3c(c2)CCN3c2ncc3c(n2)n(C2CCOCC2)c(=O)n3C)cn1 | 97.6 | 8 | half-life at 5 min, 1 µM (in vitro): 2.51 h
3 | Cc1cc(-c2cn(C)nc2C)ncc1Nc1ncc2c(n1)n(C1CCOCC1)c(=O)n2C | 77.4 | 6 | half-life at 5 min, 1 µM (in vitro): 128 h
4 | Cn1c(=O)n(C2CCOCC2)c2nc(N3CCc4cc(C(F)(F)F)ccc43)ncc21 | 41 |  | 
5 | Cc1cc(-c2cnoc2)ncc1Nc1ncc2c(n1)n(C1CCOCC1)c(=O)n2C | 32.8 |  | 
6 | Cn1c(=O)n(C2CCOCC2)c2nc(N3CCc4ccccc43)ncc21 | -11.6 |  | half-life at 5 min, 1 µM (in vitro): 1.2 h
7 | COc1ncc(-c2cc(C)c(Nc3ncc4c(n3)n(C3CCOCC3)c(=O)n4C)cn2)cn1 | 34 |  | 
8 | Cc1ncc(-c2cnn(C)c2)cc1Nc1ncc2c(n1)n(C1CCOCC1)c(=O)n2C | 74.3 | 10 | 
9 | Cc1nc(-c2cn[nH]c2)ccc1Nc1ncc2c(n1)n(C1CCOCC1)c(=O)n2C | 27.7 | 25 | half-life at 5 min, 1 µM (in vitro): 1.2 h
10 | COc1ccc(-c2ccc(Nc3ncc4c(n3)n(C3CCOCC3)c(=O)n4C)c(C)n2)cc1OC | 28.3 |  | 
11 | Cc1cc(-c2cnn(C)c2)ncc1Nc1ncc2c(n1)n(C1CCCCC1C)c(=O)n2C (stereo unspecified) | 86.7 | 9 | 
12 | Cc1cc(-c2cnn(C3CC3)c2)ncc1Nc1ncc2c(n1)n(C1CCOCC1)c(=O)n2C | 63.3 |  | 
13 | Cc1ccc(-c2cnn(C)c2)cc1Nc1ncc2c(n1)n(C1CCOCC1)c(=O)n2C | 98 | 2 | half-life at 5 min, 1 µM (in vitro): 3.04 h
14 | Cc1cc(-c2ccc3c(c2)OCCO3)ncc1Nc1ncc2c(n1)n(C1CCOCC1)c(=O)n2C | 60 |  | 
15 | Cc1cc(-c2cnn(C)c2)ncc1Nc1ncc2c(n1)n(C1CCN(S(=O)(=O)C(F)(F)F)CC1)c(=O)n2C | 86.7 | 5 | 
16 | Cc1cc(-c2ccco2)ncc1Nc1ncc2c(n1)n(C1CCOCC1)c(=O)n2C | 99.7 |  | 
17 | COc1cc(-c2cc(C)c(Nc3ncc4c(n3)n(C3CCOCC3)c(=O)n4C)cn2)cc(OC)c1OC | -11.4 |  | 
18 | Cc1ccc(-c2cc(C)c(Nc3ncc4c(n3)n(C3CCOCC3)c(=O)n4C)cn2)o1 | 76.7 |  | half-life at 5 min, 1 µM (in vitro): 0.642 h
19 | Cc1cc(-c2c(C)nn(C)c2C)ncc1Nc1ncc2c(n1)n(C1CCOCC1)c(=O)n2C | 22.9 |  | 
20 | Cc1cc(-c2cnn(C)c2)ncc1Nc1ncc2c(n1)n(C1CC1)c(=O)n2C | 53.1 |  | 

Row | Structure (SMILES) | inhibition at […] (HCT-116 [1]) [%] | IC50 [2] [nM] | also measured
21 | Cc1cc(-c2cnn(C)c2)ncc1Nc1ncc2c(n1)n(C1CCN(S(=O)(=O)C3CC3)CC1)c(=O)n2C | 84.9 | 2 | half-life at 5 min, 1 µM (in vitro): 3.04 h
22 | Cc1cc(-c2c(C)noc2C)ncc1Nc1ncc2c(n1)n(C1CCOCC1)c(=O)n2C | 25 |  | 
23 | Cc1cc(-c2cnn(C)c2)ncc1Nc1ncc2c(n1)n(C1CCN(C(=O)C3CC3)CC1)c(=O)n2C | 66.9 | 3 | 
24 | Cc1cc(-c2cnn(C)c2)ncc1Nc1ncc2c(n1)n(C1CCN(C(=O)C3CC3(F)F)CC1)c(=O)n2C (stereo unspecified) | 47.3 | 12 | 
25 | Cc1cc(-c2cnn(C)c2)ncc1Nc1ncc2c(n1)n([C@H]1CCOC1)c(=O)n2C | 90.7 | 6 | half-life at 5 min, 1 µM (in vitro): 28.9 h
26 | CC(=O)c1ccc2c(c1)CCN2c1ncc2c(n1)n(C1CCOCC1)c(=O)n2C | 32.6 | 1 | 
27 | CC(=O)N1CCC(n2c(=O)n(C)c3cnc(Nc4cnc(-c5cnn(C)c5)cc4C)nc32)CC1 | 14.7 | 1 | 
28 | Cc1nc(-c2cnn(C)c2)ccc1Nc1ncc2c(n1)n(C1CCOCC1)c(=O)n2C | 23.3 |  | 
29 | Cc1nc(-c2cnn(C)c2)ncc1Nc1ncc2c(n1)n(C1CCOCC1)c(=O)n2C | 63.2 |  | 
30 | Cc1cc(-c2cnn(C(C)C)c2)ncc1Nc1ncc2c(n1)n(C1CCOCC1)c(=O)n2C | 12.6 |  | 
31 | Cc1cc(-c2coc(C=O)c2)ncc1Nc1ncc2c(n1)n(C1CCOCC1)c(=O)n2C | 96.9 |  | half-life at 5 min, 1 µM (in vitro): 0.235 h
32 | Cn1c(=O)n(C2CCOCC2)c2nc(N3CCc4ccc([N+](=O)[O-])cc43)ncc21 | 12.5 |  | 
33 | Cc1cc(-c2cnn(C)c2)cnc1Nc1ncc2c(n1)n(C1CCOCC1)c(=O)n2C | -0.2 |  | 
34 | Cn1c(=O)n(C2CCOCC2)c2nc(N3CCc4cc(C#N)ccc43)ncc21 | 84.7 | 13 | half-life at 5 min, 1 µM (in vitro): 0.352 h
35 | Cn1c(=O)n(C2CCOCC2)c2nc(N3CCc4cc(S(C)(=O)=O)ccc43)ncc21 | 5.8 |  | 
36 | COc1cncc(-c2ccc(Nc3ncc4c(n3)n(C3CCOCC3)c(=O)n4C)c(C)n2)c1 |  | 5.3 | 
37 | Cc1cc(-c2cnn(C)c2)ncc1Nc1ncc2c(n1)n([C@@]13C[C@@H]4C[C@@](C)(C[C@@](C)(C4)C1)C3)c(=O)n2C | 83.9 |  | half-life at 5 min, 1 µM (in vitro): 0.0373 h
38 | Cn1c(=O)n(C2CCOCC2)c2nc(N3CCc4cc(F)c(F)cc43)ncc21 | 8.2 |  | 
39 | COc1cc2c(cc1OC)N(c1ncc3c(n1)n(C1CCOCC1)c(=O)n3C)CC2 | 89.8 |  | 
40 | Cc1cc(-c2cn(C)nc2C(F)(F)F)ncc1Nc1ncc2c(n1)n(C1CCOCC1)c(=O)n2C | 63.9 | 4 | half-life at 5 min, 1 µM (in vitro): 1.99 h

Row | Structure (SMILES) | inhibition at […] (HCT-116 [1]) [%] | IC50 [2] [nM] | also measured
41 | Cc1cc(-c2cncnc2)ncc1Nc1ncc2c(n1)n(C1CCOCC1)c(=O)n2C | 22.9 |  | 
42 | COc1ccc(-c2ccc(Nc3ncc4c(n3)n(C3CCOCC3)c(=O)n4C)c(C)n2)cn1 | 29.9 | 161 | 
43 | COC(=O)c1ccc2c(c1)CCN2c1ncc2c(n1)n(C1CCOCC1)c(=O)n2C | 48.1 | 5 | 
44 | Cc1cc(-c2ccoc2)ncc1Nc1ncc2c(n1)n(C1CCOCC1)c(=O)n2C | 99.8 |  | half-life at 5 min, 1 µM (in vitro): 0.213 h
45 | Cc1cc(-c2cnn(C)c2)ccc1Nc1ncc2c(n1)n(C1CCOCC1)c(=O)n2C | 58.5 |  | 
46 | Cc1nc(-c2ccnn2C)ccc1Nc1ncc2c(n1)n(C1CCOCC1)c(=O)n2C |  | 9.6 | 
47 | Cc1cc(-c2ccnn2C)ncc1Nc1ncc2c(n1)n(C1CCOCC1)c(=O)n2C | 95 | 8 | half-life at 5 min, 1 µM (in vitro): 14.4 h
48 | Cn1c(=O)n(C2CCOCC2)c2nc(Nc3ccc(-c4ccc5c(c4)OCO5)nc3)ncc21 | 85.8 |  | 
49 | Cc1cc(-c2cnn(C)c2)ncc1Nc1ncc2c(n1)n(C1CCN(C(=O)[C@@H]3C[C@H]3F)CC1)c(=O)n2C | 28.3 |  | 
50 | Cc1cc(-c2cccnc2)ncc1Nc1ncc2c(n1)n(C1CCOCC1)c(=O)n2C | 97.4 |  | 
51 | Cc1cc(-c2ccsc2)ncc1Nc1ncc2c(n1)n(C1CCOCC1)c(=O)n2C | 99.8 | 0.8 | IC50 (HCT-116 [3]): 3.76 nM; half-life at 5 min, 1 µM (in vitro): 2.51 h; Activity (NCI-H460): Active
52 | Cc1cc(-c2cnn(C)c2)ncc1Nc1ncc2c(n1)n(C1CCNCC1)c(=O)n2C | 46.8 | 0.9 | 
53 | Cc1cc(-c2cnn(C)c2C)ncc1Nc1ncc2c(n1)n(C1CCOCC1)c(=O)n2C | 28 |  | 
54 | Cc1cc(-c2cnn(C)c2)ncc1Nc1ncc2c(n1)n(CC1CCOCC1)c(=O)n2C | 42.8 |  | 
55 | Cc1cc(-c2cn[nH]c2)ncc1Nc1ncc2c(n1)n(C1CCOCC1)c(=O)n2C | 86.7 | 0.4 | half-life at 5 min, 1 µM (in vitro): 0.963 h
56 | COc1ccc2c(c1)CCN2c1ncc2c(n1)n(C1CCOCC1)c(=O)n2C | 86.1 | 6 | half-life at 5 min, 1 µM (in vitro): 0.138 h
57 | Cc1cc(-c2ncn(C)n2)ccc1Nc1ncc2c(n1)n(C1CCOCC1)c(=O)n2C | 56.1 | 13 | 
58 | Cc1cc(-c2cnn(C)c2)ncc1Nc1ncc2c(n1)n(C1CCN(S(C)(=O)=O)CC1)c(=O)n2C | 30.4 | 1 | 
